Each structure is given as a SMILES string.

Test [1] deals with Tyrosine-protein kinase ABL1 (Homo sapiens), P00519 [F317I]. Nature of the test: Inhibition of human non-phosphorylated ABL1 F317I mutant (S229 to K512 residues) expressed in mammalian expression system at 1 uM by Kinomescan method relative to control.
For test [2], the target named is NUAK family SNF1-like kinase 1 (Homo sapiens) (UniProt O60285). The test can be described thus: Inhibition of wild-type human partial length ARK5 (E25 to I332 residues) expressed in bacterial expression system at 1 uM by Kinomescan method relative to control.
Chain of NUAK family SNF1-like kinase 1 (Homo sapiens) (O60285 whole entry, the tested form may be a part): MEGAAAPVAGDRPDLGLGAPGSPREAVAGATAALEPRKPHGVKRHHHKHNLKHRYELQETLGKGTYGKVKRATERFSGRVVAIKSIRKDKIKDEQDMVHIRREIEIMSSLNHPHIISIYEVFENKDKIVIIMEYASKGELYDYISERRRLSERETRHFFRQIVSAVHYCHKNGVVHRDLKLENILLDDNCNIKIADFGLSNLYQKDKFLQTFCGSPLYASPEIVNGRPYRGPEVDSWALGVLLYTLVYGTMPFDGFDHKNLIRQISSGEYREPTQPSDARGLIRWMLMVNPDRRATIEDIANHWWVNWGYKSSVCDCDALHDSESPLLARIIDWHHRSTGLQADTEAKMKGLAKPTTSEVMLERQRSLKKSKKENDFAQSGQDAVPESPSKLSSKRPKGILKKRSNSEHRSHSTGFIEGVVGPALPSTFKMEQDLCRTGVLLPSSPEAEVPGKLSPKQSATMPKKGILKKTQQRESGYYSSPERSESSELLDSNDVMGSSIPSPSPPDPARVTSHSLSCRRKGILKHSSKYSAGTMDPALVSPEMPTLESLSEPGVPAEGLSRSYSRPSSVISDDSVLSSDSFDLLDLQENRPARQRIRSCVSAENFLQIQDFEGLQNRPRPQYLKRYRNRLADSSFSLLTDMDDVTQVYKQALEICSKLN
The target in test [3] is BMP-2-inducible protein kinase (Homo sapiens) (UniProt Q9NSY1). The test can be described thus: Inhibition of wild-type human partial length BIKE (S34 to N329 residues) expressed in bacterial expression system at 1 uM by Kinomescan method relative to control.
Chain of BMP-2-inducible protein kinase (Homo sapiens) (Q9NSY1 whole entry, looked up, the tested form may be a part): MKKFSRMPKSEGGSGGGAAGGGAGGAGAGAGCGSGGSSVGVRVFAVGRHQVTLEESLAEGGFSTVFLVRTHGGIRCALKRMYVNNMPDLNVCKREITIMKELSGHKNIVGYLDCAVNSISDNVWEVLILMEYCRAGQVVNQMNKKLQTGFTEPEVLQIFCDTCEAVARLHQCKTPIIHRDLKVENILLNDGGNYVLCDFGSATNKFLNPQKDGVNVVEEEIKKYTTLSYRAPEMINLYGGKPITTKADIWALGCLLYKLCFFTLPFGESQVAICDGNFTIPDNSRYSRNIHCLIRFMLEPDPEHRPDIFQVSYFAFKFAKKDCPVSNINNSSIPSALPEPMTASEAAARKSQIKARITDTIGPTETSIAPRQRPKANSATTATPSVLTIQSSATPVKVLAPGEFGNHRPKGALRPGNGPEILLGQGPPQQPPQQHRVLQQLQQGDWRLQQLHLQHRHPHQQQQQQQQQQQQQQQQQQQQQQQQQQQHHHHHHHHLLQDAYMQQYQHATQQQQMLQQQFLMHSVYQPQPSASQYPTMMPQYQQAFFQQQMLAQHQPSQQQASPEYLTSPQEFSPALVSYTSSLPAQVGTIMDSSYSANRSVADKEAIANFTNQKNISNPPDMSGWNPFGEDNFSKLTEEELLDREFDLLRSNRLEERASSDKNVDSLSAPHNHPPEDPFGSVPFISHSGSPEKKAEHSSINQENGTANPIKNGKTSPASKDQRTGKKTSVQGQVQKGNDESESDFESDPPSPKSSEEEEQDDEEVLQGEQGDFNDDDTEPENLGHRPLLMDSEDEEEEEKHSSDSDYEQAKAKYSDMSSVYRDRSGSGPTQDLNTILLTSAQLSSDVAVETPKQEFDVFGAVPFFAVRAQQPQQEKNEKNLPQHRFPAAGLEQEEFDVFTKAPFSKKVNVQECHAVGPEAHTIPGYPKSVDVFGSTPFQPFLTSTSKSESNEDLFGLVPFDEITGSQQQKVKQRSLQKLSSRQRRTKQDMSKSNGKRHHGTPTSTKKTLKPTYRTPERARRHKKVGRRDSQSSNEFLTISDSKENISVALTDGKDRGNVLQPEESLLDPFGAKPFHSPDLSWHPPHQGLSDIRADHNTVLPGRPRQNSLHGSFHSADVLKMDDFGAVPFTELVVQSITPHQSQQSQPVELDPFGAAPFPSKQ
Test [4] concerns the target Mitogen-activated protein kinase 4 (Homo sapiens) (UniProt P31152). The test can be described thus: Inhibition of wild-type human partial length ERK4 (M1 to L365 residues) expressed in bacterial expression system at 1 uM by Kinomescan method relative to control.
Test [5] concerns the target Fibroblast growth factor receptor 1 (Homo sapiens) (UniProt P11362). The test can be described thus: Inhibition of wild-type human partial length FGFR1 (P357 to V669 residues) expressed in bacterial expression system at 1 uM by Kinomescan method relative to control.
Test [6] relates to eIF-2-alpha kinase GCN2 (Homo sapiens), Q9P2K8 [S808G]. The test can be described thus: Inhibition of wild-type human partial length GCN2 kinase domain 2 (R585 to T1018 residues) S808G mutant expressed in bacterial expression system at 1 uM by Kinomescan method relative to control.
Test [7] deals with Hormonally up-regulated neu tumor-associated kinase (Homo sapiens) (UniProt P57058). Nature of the test: Inhibition of wild-type human partial length HUNK (A31 to K354 residues) expressed in bacterial expression system at 1 uM by Kinomescan method relative to control.
Chain of Hormonally up-regulated neu tumor-associated kinase (Homo sapiens) (P57058 whole entry, the tested form may be a part): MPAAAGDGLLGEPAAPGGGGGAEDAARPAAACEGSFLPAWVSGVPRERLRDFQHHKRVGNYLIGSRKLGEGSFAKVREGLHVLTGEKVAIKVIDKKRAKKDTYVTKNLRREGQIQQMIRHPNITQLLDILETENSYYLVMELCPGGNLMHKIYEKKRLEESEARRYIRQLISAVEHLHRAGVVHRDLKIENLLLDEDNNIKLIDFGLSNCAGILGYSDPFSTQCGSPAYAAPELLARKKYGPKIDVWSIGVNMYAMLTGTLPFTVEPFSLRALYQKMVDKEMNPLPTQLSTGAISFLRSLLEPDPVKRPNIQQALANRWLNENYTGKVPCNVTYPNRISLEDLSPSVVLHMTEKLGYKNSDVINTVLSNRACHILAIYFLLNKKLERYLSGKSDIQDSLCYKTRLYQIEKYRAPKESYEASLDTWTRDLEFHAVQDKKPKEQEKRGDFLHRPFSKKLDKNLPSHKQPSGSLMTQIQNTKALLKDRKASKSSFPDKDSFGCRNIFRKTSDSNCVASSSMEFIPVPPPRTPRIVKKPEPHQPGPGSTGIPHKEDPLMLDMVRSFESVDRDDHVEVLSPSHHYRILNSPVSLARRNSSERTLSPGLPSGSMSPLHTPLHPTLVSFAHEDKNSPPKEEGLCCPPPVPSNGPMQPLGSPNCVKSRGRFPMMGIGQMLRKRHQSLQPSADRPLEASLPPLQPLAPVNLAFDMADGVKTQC
The test system of test [8] is Mast/stem cell growth factor receptor Kit (Homo sapiens), P10721 [D816H]. The test can be described thus: Inhibition of human partial length KIT D816H mutant (I571 to D952 residues) expressed in mammalian expression system at 1 uM by Kinomescan method relative to control.
The test system of test [9] is Mast/stem cell growth factor receptor Kit (Homo sapiens), P10721 [V559D]. The test can be described thus: Inhibition of human partial length KIT V559D mutant (Y545 to D952 residues) expressed in bacterial expression system at 1 uM by Kinomescan method relative to control.
The target in test [10] is Serine/threonine-protein kinase STK11 (Homo sapiens) (UniProt Q15831). The test can be described thus: Inhibition of wild-type human full length LKB1 (M1 to Q433 residues) expressed in bacterial expression system at 1 uM by Kinomescan method relative to control.
Test [11] addresses Myosin light chain kinase 2, skeletal/cardiac muscle (Homo sapiens) (UniProt Q9H1R3). The test can be described thus: Inhibition of wild-type human partial length MYLK2 (D258 to K570 residues) expressed in bacterial expression system at 1 uM by Kinomescan method relative to control.
Test [12] concerns the target Serine/threonine-protein kinase Nek5 (Homo sapiens) (UniProt Q6P3R8). The test can be described thus: Inhibition of wild-type human partial length NEK5 (M1 to M279 residues) expressed in bacterial expression system at 1 uM by Kinomescan method relative to control.
The target of test [13] is Cyclin-dependent kinase 14 (Homo sapiens) (UniProt O94921). The test can be described thus: Inhibition of wild-type human full length PFTK1 (M1 to H451 residues) expressed in bacterial expression system at 1 uM by Kinomescan method relative to control.
Chain of Cyclin-dependent kinase 14 (Homo sapiens) (O94921 whole entry, the tested form may be a part): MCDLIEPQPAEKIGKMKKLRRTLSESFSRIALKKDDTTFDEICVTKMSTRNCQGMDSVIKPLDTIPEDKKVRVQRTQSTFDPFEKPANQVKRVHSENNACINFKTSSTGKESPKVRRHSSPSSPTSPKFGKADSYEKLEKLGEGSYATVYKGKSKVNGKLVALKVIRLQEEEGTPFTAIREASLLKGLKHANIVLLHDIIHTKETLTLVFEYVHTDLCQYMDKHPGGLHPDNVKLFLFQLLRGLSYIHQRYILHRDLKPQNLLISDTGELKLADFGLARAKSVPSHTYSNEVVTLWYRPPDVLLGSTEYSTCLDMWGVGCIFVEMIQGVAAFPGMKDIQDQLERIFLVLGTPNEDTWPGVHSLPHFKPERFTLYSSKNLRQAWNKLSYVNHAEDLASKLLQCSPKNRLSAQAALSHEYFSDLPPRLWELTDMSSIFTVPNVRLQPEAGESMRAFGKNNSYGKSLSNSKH
The target in test [14] is TRAF2 and NCK-interacting protein kinase (Homo sapiens) (UniProt Q9UKE5). The test can be described thus: Inhibition of wild-type human partial length TNIK (D4 to K311 residues) expressed in bacterial expression system at 1 uM by Kinomescan method relative to control.
For test [15], the target named is Testis-specific serine/threonine-protein kinase 1 (Homo sapiens) (UniProt Q9BXA7). The test can be described thus: Inhibition of wild-type human full length TSSK1B (M1 to Q367 residues) expressed in bacterial expression system at 1 uM by Kinomescan method relative to control.
Test [16] concerns the target Serine/threonine-protein kinase WNK1 (Homo sapiens) (UniProt Q9H4A3). The test can be described thus: Inhibition of wild-type human partial length WNK1 (Q194 to A490 residues) expressed in mammalian expression system at 1 uM by Kinomescan method relative to control.
For test [17], the target named is Tyrosine-protein kinase ABL1 (Homo sapiens) (UniProt P00519). Nature of the test: Inhibition of wild-type human non-phosphorylated ABL1 (S229 to K512 residues) expressed in mammalian expression system at 10 uM by Kinomescan method relative to control.
In test [18] the target is Protein-tyrosine kinase 6 (Homo sapiens) (UniProt Q13882). Nature of the test: Inhibition of wild-type human partial length BRK (L166 to T451 residues) expressed in bacterial expression system at 10 uM by Kinomescan method relative to control.
Test [19] concerns the target Calcium/calmodulin-dependent protein kinase type 1G (Homo sapiens) (UniProt Q96NX5). Nature of the test: Inhibition of wild-type human partial length CAMK1G (M1 to A342 residues) expressed in bacterial expression system at 10 uM by Kinomescan method relative to control.
The target in test [20] is Cyclin-dependent kinase 2 (Homo sapiens) (UniProt P24941). Nature of the test: Inhibition of wild-type human full length CDK2 (M1 to L298 residues) expressed in bacterial expression system at 10 uM by Kinomescan method relative to control.
In test [21] the target is Dual specificity tyrosine-phosphorylation-regulated kinase 1A (Homo sapiens) (UniProt Q13627). Nature of the test: Inhibition of wild-type human partial length DYRK1A (H129 to S509 residues) expressed in mammalian expression system at 10 uM by Kinomescan method relative to control.
Test [22] concerns Epidermal growth factor receptor (Homo sapiens), P00533 [UNDEFINED MUTATION]. Nature of the test: Inhibition of human partial length EGFR L747-T751del/Sins mutant expressed in bacterial expression system at 10 uM by Kinomescan method relative to control.
Test [23] addresses Serine/threonine-protein kinase pim-2 (Homo sapiens) (UniProt Q9P1W9). The test can be described thus: Inhibition of wild-type human partial length PIM2 (M1 to E291 residues) expressed in bacterial expression system at 10 uM by Kinomescan method relative to control.
In test [24] the target is Protein kinase C iota type (Homo sapiens) (UniProt P41743). The test can be described thus: Inhibition of wild-type human partial length PRKCI (H215 to V587 residues) expressed in mammalian expression system at 10 uM by Kinomescan method relative to control.
For test [25], the target named is Serine/threonine-protein kinase PRP4 homolog (Homo sapiens) (UniProt Q13523). The test can be described thus: Inhibition of wild-type human partial length PRP4 (D657 to I1007 residues) expressed in bacterial expression system at 10 uM by Kinomescan method relative to control.
Test [26] deals with Transient receptor potential cation channel subfamily M member 6 (Homo sapiens) (UniProt Q9BX84). The test can be described thus: Inhibition of wild-type human partial length TRPM6 (Q1723 to I1998 residues) expressed in mammalian expression system at 10 uM by Kinomescan method relative to control.

Chain of Serine/threonine-protein kinase Nek5 (Homo sapiens) (Q6P3R8 whole entry, the tested form may be a part): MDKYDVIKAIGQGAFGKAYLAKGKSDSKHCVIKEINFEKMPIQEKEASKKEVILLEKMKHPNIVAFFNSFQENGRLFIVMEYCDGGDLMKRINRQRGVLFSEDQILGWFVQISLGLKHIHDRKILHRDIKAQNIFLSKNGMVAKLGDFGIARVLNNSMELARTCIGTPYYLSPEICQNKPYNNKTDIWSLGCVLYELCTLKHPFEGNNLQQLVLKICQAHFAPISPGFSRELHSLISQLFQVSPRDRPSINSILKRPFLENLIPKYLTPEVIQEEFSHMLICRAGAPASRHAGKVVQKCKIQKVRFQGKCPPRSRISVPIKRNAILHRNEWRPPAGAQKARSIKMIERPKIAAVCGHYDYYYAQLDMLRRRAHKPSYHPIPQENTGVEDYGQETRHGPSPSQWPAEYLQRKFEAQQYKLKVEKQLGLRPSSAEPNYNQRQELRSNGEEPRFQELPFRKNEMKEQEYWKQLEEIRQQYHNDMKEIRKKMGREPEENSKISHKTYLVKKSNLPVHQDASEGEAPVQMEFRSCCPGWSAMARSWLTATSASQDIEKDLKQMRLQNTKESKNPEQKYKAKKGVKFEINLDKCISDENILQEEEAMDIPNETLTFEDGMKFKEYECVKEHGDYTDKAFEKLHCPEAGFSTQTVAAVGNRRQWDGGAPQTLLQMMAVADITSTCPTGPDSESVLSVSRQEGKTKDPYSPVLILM
Chain of Mitogen-activated protein kinase 4 (Homo sapiens) (P31152 whole entry, the tested form may be a part): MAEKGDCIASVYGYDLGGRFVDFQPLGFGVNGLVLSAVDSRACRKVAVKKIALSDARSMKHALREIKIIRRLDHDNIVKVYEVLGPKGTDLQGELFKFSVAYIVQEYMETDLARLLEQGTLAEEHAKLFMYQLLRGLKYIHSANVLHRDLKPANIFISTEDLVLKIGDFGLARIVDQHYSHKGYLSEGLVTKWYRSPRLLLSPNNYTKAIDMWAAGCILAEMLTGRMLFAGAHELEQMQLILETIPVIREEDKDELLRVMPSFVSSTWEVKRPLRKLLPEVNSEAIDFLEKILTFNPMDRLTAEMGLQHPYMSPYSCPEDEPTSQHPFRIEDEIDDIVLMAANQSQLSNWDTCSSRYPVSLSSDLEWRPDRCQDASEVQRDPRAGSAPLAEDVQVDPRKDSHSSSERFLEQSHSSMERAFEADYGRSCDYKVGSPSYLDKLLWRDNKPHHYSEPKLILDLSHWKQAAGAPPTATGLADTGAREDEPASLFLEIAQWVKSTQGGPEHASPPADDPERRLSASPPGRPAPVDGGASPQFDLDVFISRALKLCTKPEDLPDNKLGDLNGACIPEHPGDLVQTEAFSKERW
Chain of Myosin light chain kinase 2, skeletal/cardiac muscle (Homo sapiens) (Q9H1R3 whole entry, the tested form may be a part): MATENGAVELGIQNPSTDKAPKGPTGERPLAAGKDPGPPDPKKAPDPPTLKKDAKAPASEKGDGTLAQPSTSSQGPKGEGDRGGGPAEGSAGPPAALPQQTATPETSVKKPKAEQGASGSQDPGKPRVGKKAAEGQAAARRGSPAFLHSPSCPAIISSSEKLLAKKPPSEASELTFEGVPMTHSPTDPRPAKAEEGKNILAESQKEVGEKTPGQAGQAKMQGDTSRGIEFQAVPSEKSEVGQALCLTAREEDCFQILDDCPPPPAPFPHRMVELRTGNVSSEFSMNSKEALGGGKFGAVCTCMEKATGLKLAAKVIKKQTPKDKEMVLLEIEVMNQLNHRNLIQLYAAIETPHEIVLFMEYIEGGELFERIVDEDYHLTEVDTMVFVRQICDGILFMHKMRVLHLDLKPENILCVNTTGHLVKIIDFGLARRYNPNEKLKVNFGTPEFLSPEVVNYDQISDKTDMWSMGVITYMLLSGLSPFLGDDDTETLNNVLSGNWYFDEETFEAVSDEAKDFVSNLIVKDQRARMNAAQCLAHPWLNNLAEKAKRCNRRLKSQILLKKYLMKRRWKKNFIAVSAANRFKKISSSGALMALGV

One may read the inhibition as the drop in the measured response relative to a control, in per cent. With `O=C(Nc1cccc([C@@H]2CN(c3ncnc4[nH]ccc34)CCN2CCO)c1)Nc1c(F)cccc1N1CCCC1`, the inhibition in test [1] was found to be 100%; in [2], 45%; in test [3] it was 39%; in test [4], 100%; in test [5], 46%; in [6], 95%. Also, the inhibition in test [7] was 100%; in test [8], 18%; in [9], 40%; in test [10], 87%; in test [11] it was 100%; in [12], 100%. Moreover, the inhibition in test [13] worked out at 89%; in test [14] it was 81%; in test [15] it was 100%; in test [16] it was 74%.

For `O=C(Nc1cccc([C@H]2CCCN(c3ncnc4[nH]ccc34)C2)c1)Nc1ccccc1N1CCCC1`, the inhibition came out at 25% in test [17]; 100% in [18]; 85% in test [19]; 67% in [20]; 81% in test [21]; 88% in test [22]. Besides, the inhibition is 100% in test [23], 51% in [24], 17% in [25] and 69% in test [26].

The record behind these values is ChEMBL document CHEMBL4387741, “Optimization of novel reversible Bruton's tyrosine kinase inhibitors identified using Tethering-fragment-based screens” (Bioorg Med Chem, 2019).
